Source: US20090036400A1, “Pharmaceutical Preparations for Treating the Consequences of Alcohol Abuse, Hepatitis, Pancreatitis, Alzheimer's Disease, Parkinson's Disease, Diabetes, Toxic Kidney Disease, Reperfusion Damage, Arteriosclerosis, and as an Antidote Against Environmental Toxins and Medicinal Intoxication” (priority 2004, published 2009)
Structures can show the parent of a compound that is named as a salt.

Biological target: T1, cytochrome P450 2E1 (Rattus norvegicus, UniProt P05182)
T1 construct: from tissue
T1 sequence (P05182 whole entry): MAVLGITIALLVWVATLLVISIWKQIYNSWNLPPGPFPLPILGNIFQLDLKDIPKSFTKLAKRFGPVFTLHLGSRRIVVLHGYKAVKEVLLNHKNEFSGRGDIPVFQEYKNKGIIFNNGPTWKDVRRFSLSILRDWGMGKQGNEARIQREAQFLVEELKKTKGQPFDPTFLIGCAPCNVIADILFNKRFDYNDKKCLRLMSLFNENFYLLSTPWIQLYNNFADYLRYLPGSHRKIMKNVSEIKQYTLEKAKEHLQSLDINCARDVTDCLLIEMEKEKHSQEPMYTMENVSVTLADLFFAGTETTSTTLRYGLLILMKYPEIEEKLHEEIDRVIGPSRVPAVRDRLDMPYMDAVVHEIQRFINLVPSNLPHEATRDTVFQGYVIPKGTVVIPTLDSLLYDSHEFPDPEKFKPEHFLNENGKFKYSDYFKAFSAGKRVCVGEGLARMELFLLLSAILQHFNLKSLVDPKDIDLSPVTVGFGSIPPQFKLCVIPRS
Test: p-nitrophenol-hydroxylase activity determination (inhibiting constants)
Assay type: biochemical
Settings: microsomal fraction of acetone-induced Sprague-Dawley rats; substrate p-nitrophenol; read-out: Ki (inhibiting constant)
Protocol: 8 male Sprague-Dawley rats were administered 5% acetone (v-v) in drinking water for 7 days, as described by M. H. Wang et al. in Arch. Biochem. Biophys. […] The preparation of the microsomal fraction is carried out based on the method published by Wang, P., Mason, P. S., Günderlich, F. G., in Arch. Biochem. Biophys.
p-Nitrophenol applies as a specific substrate for cytochrome P450 2E1.

| Compound | Ki [nM] |
| --- | --- |
| CCCCCCCCCCCCCCCCC(N)COP(=O)([O-])OCC[N+](C)(C)C (racemic) [rac-1-O-phosphocholine-2-amino-octadecane-hydrochloride] | 2250 |
| CCCCCCCCCCCCCCCCOP(=O)([O-])OCC[N+](C)(C)C [Hexadecylphosphocholine, reference compound] | 600 |
| CCCCCCCCCCCCOP(=O)([O-])OCC[N+](C)(C)C [Dodecylphosphorylcholine] | 450 |
